According to ChEMBL document CHEMBL4507298 (2021):

How the values were obtained:
Conditions in all cases: Compound concentration 10.0 uM
[1] = target: Alpha-1A adrenergic receptor (Homo sapiens) (UniProt P35348)
[2] = target: Muscarinic acetylcholine receptor M3 (Homo sapiens) (UniProt P20309)
[3] = target: T1, D(4) dopamine receptor (Homo sapiens) (UniProt P21917)
T1 sequence (whole entry): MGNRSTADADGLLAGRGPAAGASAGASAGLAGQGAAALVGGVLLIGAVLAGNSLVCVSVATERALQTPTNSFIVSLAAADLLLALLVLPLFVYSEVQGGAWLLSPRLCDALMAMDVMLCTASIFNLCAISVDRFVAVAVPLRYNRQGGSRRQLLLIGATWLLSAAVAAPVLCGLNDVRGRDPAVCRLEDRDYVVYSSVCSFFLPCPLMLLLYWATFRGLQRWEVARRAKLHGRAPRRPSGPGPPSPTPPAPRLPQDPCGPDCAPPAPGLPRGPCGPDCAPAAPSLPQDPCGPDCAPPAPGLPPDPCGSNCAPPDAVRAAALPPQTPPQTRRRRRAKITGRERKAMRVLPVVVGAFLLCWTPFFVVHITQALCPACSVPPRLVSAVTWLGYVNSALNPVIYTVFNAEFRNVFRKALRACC

[4] = target: T2, Muscarinic acetylcholine receptor M5 (Homo sapiens) (UniProt P08912)
T2 sequence (whole entry): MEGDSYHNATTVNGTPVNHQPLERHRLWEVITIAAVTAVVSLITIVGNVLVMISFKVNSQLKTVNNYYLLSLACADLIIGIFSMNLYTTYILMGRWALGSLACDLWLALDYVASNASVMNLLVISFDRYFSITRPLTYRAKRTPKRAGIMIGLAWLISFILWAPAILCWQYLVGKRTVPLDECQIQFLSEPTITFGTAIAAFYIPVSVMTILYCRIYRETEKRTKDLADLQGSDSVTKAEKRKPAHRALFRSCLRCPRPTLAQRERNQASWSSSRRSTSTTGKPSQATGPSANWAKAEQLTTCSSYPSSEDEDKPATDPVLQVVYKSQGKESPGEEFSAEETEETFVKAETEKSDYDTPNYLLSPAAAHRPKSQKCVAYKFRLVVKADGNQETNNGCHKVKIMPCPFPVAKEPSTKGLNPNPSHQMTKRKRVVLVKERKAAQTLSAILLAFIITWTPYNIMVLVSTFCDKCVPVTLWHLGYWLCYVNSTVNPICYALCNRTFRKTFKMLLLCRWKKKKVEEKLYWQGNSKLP

[5] = target: GABA-A receptor; anion channel (Rattus norvegicus) (UniProt O09028+P15431+P18506+P18508+P19969+P20236+P23574+P23576+P28471+P28473+P30191+P62813+P63079+P63138+Q91ZM7+Q9ES14)
[6] = target: T3, Alpha-2C adrenergic receptor (Homo sapiens) (UniProt P18825)
T3 sequence (whole entry): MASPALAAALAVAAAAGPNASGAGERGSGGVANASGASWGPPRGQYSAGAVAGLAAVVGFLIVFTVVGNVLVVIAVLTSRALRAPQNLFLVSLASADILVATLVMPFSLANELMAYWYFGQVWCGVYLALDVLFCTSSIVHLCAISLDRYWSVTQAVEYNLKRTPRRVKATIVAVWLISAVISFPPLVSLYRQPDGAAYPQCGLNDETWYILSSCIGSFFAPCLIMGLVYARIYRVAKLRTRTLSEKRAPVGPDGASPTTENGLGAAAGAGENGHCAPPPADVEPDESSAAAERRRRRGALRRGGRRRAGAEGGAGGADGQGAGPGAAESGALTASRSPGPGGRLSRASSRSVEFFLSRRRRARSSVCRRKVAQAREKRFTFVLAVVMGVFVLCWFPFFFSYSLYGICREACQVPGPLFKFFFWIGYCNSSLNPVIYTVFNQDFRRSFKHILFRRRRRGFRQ

[7] = target: T4, Alpha-2A adrenergic receptor (Homo sapiens) (UniProt P08913)
T4 sequence (whole entry): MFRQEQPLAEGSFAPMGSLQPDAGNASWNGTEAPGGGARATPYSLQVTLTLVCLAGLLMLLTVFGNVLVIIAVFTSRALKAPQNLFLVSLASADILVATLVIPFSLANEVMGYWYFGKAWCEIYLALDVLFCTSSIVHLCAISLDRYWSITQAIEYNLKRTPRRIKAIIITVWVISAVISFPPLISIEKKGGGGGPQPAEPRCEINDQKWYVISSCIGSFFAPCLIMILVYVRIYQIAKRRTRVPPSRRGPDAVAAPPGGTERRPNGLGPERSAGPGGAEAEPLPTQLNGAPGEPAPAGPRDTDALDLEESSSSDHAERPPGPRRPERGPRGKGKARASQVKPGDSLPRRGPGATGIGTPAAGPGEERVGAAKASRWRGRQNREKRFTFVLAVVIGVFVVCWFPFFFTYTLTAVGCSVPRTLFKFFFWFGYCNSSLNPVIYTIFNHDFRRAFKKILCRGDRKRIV

[8] = target: 5-hydroxytryptamine receptor 1E (Homo sapiens) (UniProt P28566)
[9] = target: Alpha-1D adrenergic receptor (Homo sapiens) (UniProt P25100)
[10] = target: T5, Alpha-2B adrenergic receptor (Homo sapiens) (UniProt P18089)
T5 sequence (whole entry): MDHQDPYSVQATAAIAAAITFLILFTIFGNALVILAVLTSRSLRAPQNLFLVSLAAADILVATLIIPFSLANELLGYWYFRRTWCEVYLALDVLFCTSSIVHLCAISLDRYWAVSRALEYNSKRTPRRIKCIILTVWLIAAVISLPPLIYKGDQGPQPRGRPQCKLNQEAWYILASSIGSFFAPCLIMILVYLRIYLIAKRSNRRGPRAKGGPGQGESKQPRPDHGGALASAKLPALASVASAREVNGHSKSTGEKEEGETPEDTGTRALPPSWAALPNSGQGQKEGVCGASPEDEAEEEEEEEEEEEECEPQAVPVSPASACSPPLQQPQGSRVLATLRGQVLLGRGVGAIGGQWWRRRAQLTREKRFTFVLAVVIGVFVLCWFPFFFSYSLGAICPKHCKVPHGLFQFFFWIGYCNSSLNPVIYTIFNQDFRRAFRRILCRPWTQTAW

Measured: inhibition

Sequence of Alpha-1D adrenergic receptor (Homo sapiens) (P25100 whole entry): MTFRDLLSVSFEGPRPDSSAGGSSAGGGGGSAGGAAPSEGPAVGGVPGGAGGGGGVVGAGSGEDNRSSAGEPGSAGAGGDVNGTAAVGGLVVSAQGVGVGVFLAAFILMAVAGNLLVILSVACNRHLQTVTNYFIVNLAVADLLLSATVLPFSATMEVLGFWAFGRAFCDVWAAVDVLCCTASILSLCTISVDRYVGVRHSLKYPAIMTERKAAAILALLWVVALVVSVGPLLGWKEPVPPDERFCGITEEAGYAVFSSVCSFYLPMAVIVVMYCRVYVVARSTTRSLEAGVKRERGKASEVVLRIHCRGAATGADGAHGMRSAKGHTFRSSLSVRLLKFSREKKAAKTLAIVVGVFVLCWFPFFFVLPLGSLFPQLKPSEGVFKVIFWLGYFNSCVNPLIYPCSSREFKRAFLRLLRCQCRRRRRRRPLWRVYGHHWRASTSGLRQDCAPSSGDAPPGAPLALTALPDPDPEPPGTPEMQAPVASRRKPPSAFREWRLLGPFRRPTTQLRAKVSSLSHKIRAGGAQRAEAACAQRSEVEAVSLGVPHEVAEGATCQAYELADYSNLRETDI
Sequence of Alpha-1A adrenergic receptor (Homo sapiens) (P35348 whole entry): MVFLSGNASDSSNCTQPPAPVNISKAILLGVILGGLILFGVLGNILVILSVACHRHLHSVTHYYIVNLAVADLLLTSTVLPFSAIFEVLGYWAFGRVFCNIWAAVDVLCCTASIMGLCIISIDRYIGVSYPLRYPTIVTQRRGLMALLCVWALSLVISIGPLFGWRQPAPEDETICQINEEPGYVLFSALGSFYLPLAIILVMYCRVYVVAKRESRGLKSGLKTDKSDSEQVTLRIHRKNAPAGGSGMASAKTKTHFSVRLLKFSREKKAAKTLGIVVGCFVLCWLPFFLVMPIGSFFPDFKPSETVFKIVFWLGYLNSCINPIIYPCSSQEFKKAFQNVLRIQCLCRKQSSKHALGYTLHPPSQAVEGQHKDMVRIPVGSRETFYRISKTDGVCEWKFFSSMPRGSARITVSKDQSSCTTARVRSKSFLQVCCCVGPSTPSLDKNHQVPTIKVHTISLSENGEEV
Sequence of 5-hydroxytryptamine receptor 1E (Homo sapiens) (P28566 whole entry): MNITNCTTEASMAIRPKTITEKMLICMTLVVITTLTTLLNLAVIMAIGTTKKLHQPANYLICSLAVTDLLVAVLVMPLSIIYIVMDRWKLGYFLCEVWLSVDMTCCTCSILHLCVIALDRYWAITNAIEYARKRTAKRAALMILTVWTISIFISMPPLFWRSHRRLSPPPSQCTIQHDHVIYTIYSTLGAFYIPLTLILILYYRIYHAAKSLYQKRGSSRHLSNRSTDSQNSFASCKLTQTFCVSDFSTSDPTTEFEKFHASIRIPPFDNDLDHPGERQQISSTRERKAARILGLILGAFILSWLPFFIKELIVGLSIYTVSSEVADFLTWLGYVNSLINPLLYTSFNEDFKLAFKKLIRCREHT
Sequence of Muscarinic acetylcholine receptor M3 (Homo sapiens) (P20309 whole entry, looked up): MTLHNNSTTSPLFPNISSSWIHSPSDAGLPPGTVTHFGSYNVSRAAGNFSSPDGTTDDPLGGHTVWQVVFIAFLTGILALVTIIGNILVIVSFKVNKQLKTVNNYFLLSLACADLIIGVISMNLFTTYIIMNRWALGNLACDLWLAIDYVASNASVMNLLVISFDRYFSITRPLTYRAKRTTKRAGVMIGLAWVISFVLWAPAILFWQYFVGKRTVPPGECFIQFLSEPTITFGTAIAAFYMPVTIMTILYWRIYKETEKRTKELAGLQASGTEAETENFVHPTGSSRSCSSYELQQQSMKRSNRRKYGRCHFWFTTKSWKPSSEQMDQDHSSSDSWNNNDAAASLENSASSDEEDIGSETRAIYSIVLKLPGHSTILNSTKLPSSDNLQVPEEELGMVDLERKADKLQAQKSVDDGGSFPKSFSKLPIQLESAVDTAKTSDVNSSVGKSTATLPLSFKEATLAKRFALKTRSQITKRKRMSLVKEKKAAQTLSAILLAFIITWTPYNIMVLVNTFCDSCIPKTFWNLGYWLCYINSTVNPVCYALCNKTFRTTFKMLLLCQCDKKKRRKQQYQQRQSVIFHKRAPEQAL

COc1ccc2cc(OCC3(C(=O)O)CN(C(=O)c4ccc(F)cc4)C3)ccc2c1 [PF-04418948]
inactive: [1] 2.52% | [2] 19.2% | [3] 8.76% | [4] -7.44% | [5] -1.97% | [6] 9.72% | [7] 21.8% | [8] 11% | [9] -3.76% | [10] 9.24%

O=C(c1ccc(F)cc1)N1CC(COc2ccc(Br)cc2)(C(=O)O)C1 [PF-04475866]
inactive: [1] -4.09% | [2] 27.9% | [3] -7.87% | [4] -0.33% | [5] -8.88% | [6] 11.3% | [7] 14.2% | [8] 12.2% | [9] 5% | [10] 12.1%
